Laboratory results as given in patent US20110009446A1, “OLIGOMER-GUANIDINE CLASS CONJUGATES” (Nektar Therapeutics, priority 2008, published 2011).
pKi: −log10 of the molar value. Counter-ions that a name gives are not always drawn.

Key:
[1] = target: T1, noradrenalin transporters (Rattus norvegicus, UniProt Q9WTR4); assay: Radioligand binding assay ([3H]-nisoxetine competition) in rat forebrain membranes; details: 1.0 nM [3H]-nisoxetine, 0-4° C., 4 hours, Cheng Prusoff correction
T1 construct: membranes prepared from rat forebrain which express noradrenalin transporters; from tissue; host or cells: rat forebrain membranes
Experimental: Competition binding experiments are conducted by incubating membranes with 1.0 nM of radioligand, [^3H]-nisoxetine, in the presence of variable concentrations (0.1 nM to 3 μM and 1 nM to 30 μM for parent and PEG conjugates, respectively) of test compounds. The reaction is carried out in 50 mM Tris-HCl (pH 7.4), containing 300 mM NaCl and 5 mM KCl at 0-4° C. for 4 hours. Following incubations, the membranes are washed, and the bound radioactivity is measured. Non-specific binding is measured in the presence of excess desipramine (1.0 μM) as the cold ligand; this value is subtracted from the total binding to yield the specific binding at each test compound concentration.
Ki is obtained using the Cheng Prusoff correction using experimental Kd values that are previously determined under these assay conditions.

[2] = system: visceral pain in mice (CD-1 male mice); assay: Analgesic assay (acetic acid-induced writhing); format: in vivo
Experimental: An analgesic assay was used to determine whether a given compound can reduce and/or prevent visceral pain in mice. The assay utilized CD-1 male mice (5-8 mice per group), each mouse being approximately 0.015-0.030 kg on the study day. Mice were treated according to standard protocols. Mice were given a single “pretreatment” dose of a compound lacking covalent attachment of a water-soluble, non-peptidic oligomer, a corresponding version comprising the compound covalently attached to a water-soluble, non-peptidic oligomer, or control solution (IV, SC, IP or orally) thirty minutes prior to the administration of the acetic acid solution. The animal was given an IP injection of an irritant (acetic acid) that induces “writhing” which may include: contractions of the abdomen, twisting and turning of the trunk, arching of the back and the extension of the hindlimbs. Mice were given a single IP injection (0.1 mL/10 g bodyweight) of a 0.5% acetic acid solution. After the injection the animals were returned to their observation enclosure and their behavior was observed. Contractions were counted between 0 and 20 minutes after the injection. The animals were used once. Each tested article was dosed at 1, 3 and 10 mg/kg (n=5 animals/dose).

[3] = 10 mg/kg, 5 animals, acetic acid writhing

T1 sequence (Q9WTR4 1-597): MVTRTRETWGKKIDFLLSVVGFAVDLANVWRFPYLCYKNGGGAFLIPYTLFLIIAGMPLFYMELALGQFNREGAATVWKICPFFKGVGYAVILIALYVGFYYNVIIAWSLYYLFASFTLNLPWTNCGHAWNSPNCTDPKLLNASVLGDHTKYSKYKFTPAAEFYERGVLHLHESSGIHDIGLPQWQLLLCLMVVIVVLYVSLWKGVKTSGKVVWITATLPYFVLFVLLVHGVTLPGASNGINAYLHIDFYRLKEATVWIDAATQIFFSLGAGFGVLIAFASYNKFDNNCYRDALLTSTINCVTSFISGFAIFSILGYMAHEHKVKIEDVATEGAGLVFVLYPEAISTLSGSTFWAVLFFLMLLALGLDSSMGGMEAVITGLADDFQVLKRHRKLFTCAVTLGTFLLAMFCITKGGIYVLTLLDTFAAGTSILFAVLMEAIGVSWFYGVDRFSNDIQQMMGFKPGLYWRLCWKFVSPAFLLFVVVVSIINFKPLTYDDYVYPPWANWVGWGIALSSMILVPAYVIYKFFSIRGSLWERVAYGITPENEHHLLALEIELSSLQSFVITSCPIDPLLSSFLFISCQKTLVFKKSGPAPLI

SMILES | pKi [1] | Mean (contractions/writhing counted) ([2]; 10 mg/kg single pretreatment dose 30 min before IP 0.5% acetic acid, contractions counted 0-20 min, CD-1 male mice) | No. of Responders [2, 3] | Responding Fraction [2, 3] | % Reduction in writhing ([2]; 10 mg/kg, CD-1 male mice, acetic acid writhing)
N=C(N)N1CCc2ccccc2C1 [Debrisoquine sulfate, debrisoquine sulfate] | 6.23 |  |  |  | 
N=C(N)N1CCc2ccccc2C1 [Debrisoquine] |  | 49.6 | 0 | 0.00 | 10.6%
